“Also recorded” adds a separate entry of the source. Where two headings read alike, the source gives them in different places.
Legend:
Nurr1 LBD Arg563Ala = target: T1, Nurr1 LBD Arg563Ala (Homo sapiens, UniProt P43354, R563A); assay: MST binding to Arg563Ala mutant Nurr1 LBD; settings: for Amplitude: Table 1, MST amplitude, R563A; for Response Amplitude: Table 2, MST, Arg563Ala
T1 construct: Mutants of LAP2 Nurr1 were prepared by GenScript starting from LAP2 Nurr1 vector; made in house
T1 sequence (P43354 with tags, fused parts or gaps R563A): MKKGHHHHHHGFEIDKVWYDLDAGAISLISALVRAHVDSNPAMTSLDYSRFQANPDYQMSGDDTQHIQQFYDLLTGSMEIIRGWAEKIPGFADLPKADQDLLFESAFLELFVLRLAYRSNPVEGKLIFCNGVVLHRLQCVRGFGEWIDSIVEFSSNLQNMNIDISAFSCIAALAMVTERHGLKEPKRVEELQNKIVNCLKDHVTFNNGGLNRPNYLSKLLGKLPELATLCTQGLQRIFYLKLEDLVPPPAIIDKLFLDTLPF
Description: The plasmid used for the expression of LAP2-tagged Nurr1 LBDs (LAP2 Nurr1) was prepared by GenScript (Piscataway, N.J.) as the product of gene synthesis and subcloning into pET-21a(+) Vector (GenScript) using the Ndel and Xhol sites within the MCS. Mutants of LAP2 Nurr1 were prepared by GenScript starting from LAP2 Nurr1 vector.
Concentration-dependent association of the indoles with the Nurr1 LBD was carried out using microscale thermophoresis. Stock solutions (10 mM in DMSO) of each indole were serially diluted (200 μM indole, 0.5× dilutions down to 0.0061 μM) in MST buffer (25 mM HEPES, pH 7.4, 150 mM NaCl, and 0.1% Pluronic F127) containing 2% DMSO. The dilutions were carried out with 4% DMSO in the MST buffer for a total of 16 concentrations. Equivalent volumes and concentrations of the fluorescently labeled Nurr1 LBD in MST buffer were added to each ligand dilution in the series to reach a final concentration of 75 nM labeled protein. After incubating for 20 minutes, the samples were loaded into Monolith NT.115 Capillaries (Nanotemper).
Data were collected using the Monolith NT.115 System (Nanotemper), with settings for all samples at 40% excitation power and 40% MST power. The initial fluorescence was recorded for 3 sec and the thermophoresis fluorescence response was recorded for 20 sec. The data was inspected with Palmist software^5, and data points affected by initial fluorescence quenching or photobleaching were eliminated. The fluorescent response for each sample was normalized to the initial fluorescence using Palmist software to provide the values of thermophoresis (Fn). The resulting data was used to generate a plot of the change in thermophoresis (Fn-Fn0, where Fn=thermophoresis and Fn0=thermophoresis response in unbound range) versus concentration of the ligand. GraphPad Prism v. 8.3.0 software was used to fit the resulting data to a mass action equation for a specific binding with Hill slope, solving for KD: Fn-Fn0═Fmax·[L]^n/(KD^n+[L]^n), where Fmax=maximum amplitude of thermophoresis, [L]=concentration of the ligand at a specific point, KD=dissociation constant, nH=Hill Coefficient.

[1] = tested on: Nurr1 target genes Th and Vmat2 in MN9D cells; assay: Target gene transcription assay (qPCR) in MN9D cells; format: cell-based, mouse; settings: for Expression of Th, fold-change relative to vehicle (DMSO) / Expression of Vmat2, fold-change relative to vehicle (DMSO): 10 μM, 24 h, normalized to Hprt
Description: Target Gene Transcription Assays. These assays were carried out using standard protocols. MN9D TET-ON frozen cell stocks (P5) were thawed and grown for 60-72 h on poly-D-lysine pre-treated culture dishes (100 mm) in Dulbecco's Modified Eagle Medium/Nutrient Mixture F-12 (DMEM/F-12; Gibco) supplemented with 5% Tet System Approved FBS (Takara Bio USA) at 37° C., 5% C02 to ˜80% confluency. The resulting cells were then trypsinized with 0.25% Trypsin-EDTA (Gibko) and diluted to 2·10^5 cells/ml with fresh medium. The resulting cell suspension (0.8 mL) was added to 2× concentrated compound in the same medium containing 0.2% DMSO (0.8 mL) in an Eppendorf tube. The cell suspension with compound or vehicle (DMSO) was then seeded onto a 24-well plate pre-treated with Poly-D-Lysine at 0.8 mL per well. Assays were performed under conditions of basal Nurr1 expression, without induction of additional Nurr1 expression using doxycycline.
After 24 h, total RNA was extracted the cells in each well using the Quick-RNA MiniPrep Plus Kit (Zymo Research), according to the manufacturer's instructions. The cDNA was then synthesized from 1000 ng of purified RNA using High-Capacity cDNA Reverse Transcription Kit (Applied Biosystems) and used as template. The qPCR as performed using iTaq Universal SYBR Green Supermix (BioRad) and CFX96 Real-Time Detection System machine (BioRad). Briefly, qPCR was performed in hard-shell 96-well PCR plates (BioRad) using cDNA corresponding to 8.75 ng of starting total RNA in a volume of 15 μl, containing 7.5 μl of SYBR Green Supermix, and 1 μL of 10 μM forward and reverse primers. Cycling parameters for qPCR included an initial denaturation at 95° C. for 3 min, followed by 40 cycles of 95° C. for 5 s and annealing at 56° C. for 30 s. The forward and reverse primers (Table 4) were ordered from IDT. Gene expression was quantified by the comparative2-ΔΔCt method, with the mouse housekeeping gene hypoxanthine-guanine phosphoribosyltransferase (Hprt) used as internal reference to determine the relative mRNA expression. Transcript levels for target genes were normalized to the housekeeping gene Hprt and fold change was compared to gene expression levels from vehicle (DMSO) only treated cells. GraphPad Prism 8 software was used for statistical analysis. Two-way ANOVA was applied for DMSO fold change vs compound. Results are from three independent experiments. Relative average expression±SD; *p<0.05, **p<0.01, ***p<0.001, ****p<0.0001 by ANOVA in comparison expression with 0 μM compound (DMSO only).

| SMILES | Binding to Arg563Ala mutant Nurr1 LBD (in words) (Nurr1 LBD Arg563Ala; MST) | Amplitude (Nurr1 LBD Arg563Ala) | Amplitude (% change) (Nurr1 LBD Arg563Ala; Table 1, R563A relative to WT) [%] | Response Amplitude (Nurr1 LBD Arg563Ala) | Effect on expression of Nurr1 target genes Th and Vmat2 (in words) [1] | Expression of Th, fold-change relative to vehicle (DMSO) [1] [fold] | Expression of Vmat2, fold-change relative to vehicle (DMSO) [1] [fold] | Kd (Nurr1 LBD Arg563Ala; Table 1, Nurr1 variant R563A, read-out: KD) [µM] | KD (% change) (Nurr1 LBD Arg563Ala; Table 1, R563A relative to WT) [%] | Kd (Nurr1 LBD Arg563Ala; Table 2, Arg563Ala, read-out: Affinity (KD)) [µM] |
| --- | --- | --- | --- | --- | --- | --- | --- | --- | --- | --- |
| Brc1ccc2[nH]ccc2c1 [5-bromoindole] | completely eliminated | ≤10 | ≥−86 | ≤10 (****) | upregulating the expression; also recorded: supports the transcription | 2.2 | 2.5 | – | – | – |
| Clc1ccc2[nH]ccc2c1 [5-chloroindole] | – | 23 + 2 | −66 | 19 + 2 (****) | concentration dependent; also recorded: upregulating the expression; also recorded: supports the transcription; also recorded: superior to that of DHI | 1.8 | 2.4 | 13 | −48 | 8.3 |

From patent US20230255934A1, “NURR1 RECEPTOR MODULATORS AND USES THEREOF” (The Regents of the University of California, priority 2020, published 2023)
